Experimental data as given in publication PMC6242839 (Nature Communications, 2018).
Converted amounts (≈) assume the structure as drawn. Where two headings read alike, the source gives them in different places.

Columns and labels:
[1] = tested on: B. anthracis Sterne strain; assay: microbe, parasite or virus in culture; format: cell-based; conditions: Bacillus anthracis; 16 h at 37 °C; read-out: MIC B. anthracis Sterne
[2] = tested on: B. anthracis pathogenic strain (human isolate); assay: microbe, parasite or virus in culture; format: cell-based; conditions: Bacillus anthracis; 16 h at 37 °C; read-out: MIC B. anthracis Pathogenic
[3] = tested on: B. anthracis ovine strain (animal isolate); assay: microbe, parasite or virus in culture; format: cell-based; conditions: Bacillus anthracis; 16 h at 37 °C; read-out: MIC B. anthracis Ovine
E. faecalis (ATCC 29212) = assay: microbe, parasite or virus in culture; format: cell-based; conditions: Enterococcus faecalis, ATCC29212; 16 h at 37 °C; read-out: MIC E. faecalis
B. cereus (ATCC 10876) = assay: microbe, parasite or virus in culture; format: cell-based; conditions: Bacillus cereus, ATCC10876; 16 h at 37 °C; read-out: MIC B. cereus
B. cereus ATCC 14579 = assay: microbe, parasite or virus in culture; format: cell-based, Bacillus cereus; conditions: Bacillus cereus, ATCC14579
[4] = POPE LUVs, compound 50 µM
[5] = POPC LUVs, compound 50 µM
in vitro = conditions: human
E. coli K12 spheroplasts = assay: microbe, parasite or virus in culture; format: cell-based, Escherichia coli
[6] = tested on: S. aureus ATCC 29213 protoplasts; assay: microbe, parasite or virus in culture; format: cell-based, Staphylococcus aureus
[7] = tested on: Bacillus cereus ATCC 14579; conditions: cited from earlier work
[8] = tested on: B. cereus ATCC 14579 strains resistant to known antibiotics; assay: microbe, parasite or virus in culture; format: cell-based, Bacillus cereus

CCCCCCCCCCCCO[C@@H]1C[C@@H](O)[C@H](O)[C@@H](CO)O1 [Compound 13]
MIC [1]: 386 µM (≈ 128 µg/mL)
MIC [2]: 12 µM (≈ 3.99 µg/mL)
MIC [3]: 12 µM (≈ 3.99 µg/mL)
MIC (E. faecalis (ATCC 29212)): 12 µM (≈ 3.99 µg/mL)
MIC (B. cereus (ATCC 10876)): 386 µM (≈ 128 µg/mL)
MBC (B. cereus ATCC 14579): 0.128 mg/mL (≈ 385 µM)
MIC (B. cereus ATCC 14579): 0.128 mg/mL (≈ 385 µM)
time of leakage, τL [4]: about 326 min
leakage of encapsulated carboxyfluorescein ([4]; course of the experiment (14 h)): ~ 10%
time of leakage, τL [5]: ~256 min
IC50 at 24 h (in vitro): 100 µM
IC50 at 48 h (in vitro): > 50 µM

Polymyxin B [reference compound]
MIC (E. coli K12 spheroplasts): > 1000 mg/mL
MIC [6]: > 1000 mg/mL
MIC [7]: 0.781 mg/mL

CN[C@H](CC(C)C)C(=O)N[C@H]1C(=O)N[C@@H](CC(N)=O)C(=O)N[C@H]2C(=O)N[C@H]3C(=O)N[C@H](C(=O)N[C@H](C(=O)O)c4cc(O)cc(O)c4-c4cc3ccc4O)[C@H](O)c3ccc(c(Cl)c3)Oc3cc2cc(c3O[C@@H]2O[C@H](CO)[C@@H](O)[C@H](O)[C@H]2O[C@H]2C[C@](C)(N)[C@H](O)[C@H](C)O2)Oc2ccc(cc2Cl)[C@H]1O [Vancomycin]
MIC of the antibiotic [8]: 0.005 mg/mL
MIC [7]: 0.00018 mg/mL (≈ 0.124 µM)

CO[C@H]1/C=C/O[C@@]2(C)Oc3c(C)c(O)c4c(O)c(c(/C=N/N5CCN(C)CC5)c(O)c4c3C2=O)NC(=O)/C(C)=C\C=C\[C@H](C)[C@H](O)[C@@H](C)[C@@H](O)[C@@H](C)[C@H](OC(C)=O)[C@@H]1C [Rifampicin]
MIC [7]: 0.0005 mg/mL (≈ 0.608 µM)

CN(C)[C@@H]1C(O)=C(C(N)=O)C(=O)[C@@]2(O)C(O)=C3C(=O)c4c(O)cccc4[C@@](C)(O)[C@H]3C[C@@H]12 [Tetracycline]
MIC of the antibiotic [8]: 0.05 mg/mL
MIC [7]: 0.0025 mg/mL (≈ 5.63 µM)

CC1(C)S[C@@H]2[C@H](NC(=O)[C@H](N)c3ccccc3)C(=O)N2[C@H]1C(=O)O [Ampicillin]
MIC [7]: 0.00025 mg/mL (≈ 0.715 µM)

O=C(O)c1cn(C2CC2)c2cc(N3CCNCC3)c(F)cc2c1=O [Ciprofloxacin]
MIC of the antibiotic [8]: 0.05 mg/mL
MIC [7]: 0.00032 mg/mL (≈ 0.966 µM)

Penicillin
MIC of the antibiotic [8]: 0.02 mg/mL

CCCCCCCCCCCCS[C@H]1C[C@@H](O)[C@H](O)CO1 [Compound 20]
MIC [1]: 25 µM (≈ 7.96 µg/mL)
MIC [2]: 50 µM (≈ 15.9 µg/mL)
MIC [3]: 50 µM (≈ 15.9 µg/mL)
MIC (E. faecalis (ATCC 29212)): > 50 µM
MIC (B. cereus (ATCC 10876)): 50 µM (≈ 15.9 µg/mL)
MBC (B. cereus ATCC 14579): 0.032 mg/mL (≈ 100 µM)
MIC (B. cereus ATCC 14579): 0.032 mg/mL (≈ 100 µM)

CCCCCCCCCCCC[C@@H]1C[C@@H](O)[C@H](O)[C@@H](C)O1 [Compound 10, 1-(2,6-Dideoxy-α-D-arabino-hexopyranosyl)dodecane]
MIC [1]: 27 µM (≈ 8.11 µg/mL)
MIC [2]: 27 µM (≈ 8.11 µg/mL)
MIC [3]: 27 µM (≈ 8.11 µg/mL)
MIC (E. faecalis (ATCC 29212)): > 54 µM
MIC (B. cereus (ATCC 10876)): 27 µM (≈ 8.11 µg/mL)
MBC (B. cereus ATCC 14579): 0.032 mg/mL (≈ 106 µM)
MIC (B. cereus ATCC 14579): 0.032 mg/mL (≈ 106 µM)
IC50 at 24 h (in vitro): > 100 µM
IC50 at 48 h (in vitro): > 100 µM
